Results reported in patent US20260364214A1, “MULTIVALENT FIBROBLAST ACTIVATION PROTEIN LIGANDS FOR TARGETED DELIVERY APPLICATIONS” (Philochem AG, priority 2022, published 2026).

System: SK-RC-52.hFAP tumors
Assay: Quantitative biodistribution in SK-RC-52.hFAP tumor bearing mice
Type: in vivo, mouse (female athymic Balb/c AnNRj-Foxn1)
Conditions: i.v. 250 nmol/kg, 50 MBq/kg
Method: SK-RC-52.hFAP were grown to 80% confluence in RPMI-1640 with 10% fetal bovine serum (FBS) and 1% antibiotic-antimycotic and detached with Trypsin-EDTA (ethylenediaminetetraacetic acid) 0.05%. Tumor cells were resuspended in Hanks' Balanced Salt Solution medium. Aliquots of 5 million cells (100 μL of suspension) were injected subcutaneously in the right flank of female athymic Balb/c AnNRj-Foxn1 mice (6 to 8 wk of age).
Radiolabeling of ESV6-DOTAGA, Bi-ESV6-DOTAGA, Tri-ESV6-DOTAGA, Tetra-ESV6-DOTAGA, Hexa-ESV6-DOTAGA, Octa-ESV6-DOTAGA and FAP-2286 with lutetium-177 (a therapeutic radionuclide) was performed with different specific activities for three different studies (biodistribution, therapy and dose optimization).
Prior to the biodistribution study, precursors (100 nmol) were dissolved in 100 μL of milliQ water and diluted with 200 μL of sodium acetate (1 M in water, pH=4.5). 20 MBq of ^177Lu solution were added and the mixture was heated at 90 °C for 10 minutes, followed by dilution with […] of PBS to achieve final volume of 2 mL (20 doses of 100 μL each).
ESV6-DOTAGA, Bi-ESV6-DOTAGA, Tri-ESV6-DOTAGA, Tetra-ESV6-DOTAGA, Hexa-ESV6-DOTAGA, Octa-ESV6-DOTAGA and FAP-2286 were radiolabeled with ^177Lu as described above. Tumors were allowed to grow to an average volume of 300 mm^3. Mice were randomized and injected intravenously with radiolabeled preparations of ^177Lu-ESV6, ^177Lu-Bi-ESV6, ^177Lu-Tri-ESV6, Tetra-ESV6-DOTAGA, Hexa-ESV6-DOTAGA, Octa-ESV6-DOTAGA or ^177Lu-FAP-2286 (250 nmol/kg; 50 MBq/kg). Mice were euthanized at different time-points after the intravenous injection by CO2 asphyxiation. Tumors, organs, and blood were collected, weighted, and radioactivity was measured with a Packard Cobra Gamma Counter. Values are expressed as percent ID/g±SD [FIG. 4]. The % ID/g in the tumors was corrected considering the SK-RC-52.hFAP tumor growth rate.
Quantitative in vivo biodistribution of ^177Lu-ESV6-DOTAGA, ^177Lu-Bi-ESV6-DOTAGA, ^177Lu-Tri-ESV6-DOTAGA, ^177Lu-FAP-2286, Tetra-ESV6-DOTAGA, Hexa-ESV6-DOTAGA and Octa-ESV6-DOTAGA at different time points after intravenous administration (250 nmol/kg, 50 MBq/kg) in mice bearing SK-RC-52.hFAP tumors, are shown in Tables 1 to 4 and 10 to 12. Data are reported as % ID/g±standard deviation.
Tumor-to-organ ratios of ^177Lu-ESV6-DOTAGA, ^177Lu-Bi-ESV6-DOTAGA, ^177Lu-Tri-ESV6-DOTAGA, ^177Lu-FAP-2286, Tetra-ESV6-DOTAGA, Hexa-ESV6-DOTAGA and Octa-ESV6-DOTAGA, at different time points after intravenous administration (250 nmol/kg, 50 MBq/kg) in mice bearing SK-RC-52.hFAP tumors, are shown in Tables 5 to 8 and 13 to 15. Avg.=average; Std.d=standard deviation.

With `N#C[C@@H]1CC(F)(F)CN1C(=O)CNC(=O)c1ccnc2c(NC(=O)CCC(=O)NCCNC(=O)CCOCC(COCCC(=O)NCCNC(=O)CCC(=O)Nc3cccc4c(C(=O)NCC(=O)N5CC(F)(F)C[C@H]5C#N)ccnc34)(COCCC(=O)NCCNC(=O)CCC(=O)Nc3cccc4c(C(=O)NCC(=O)N5CC(F)(F)C[C@H]5C#N)ccnc34)NC(=O)CCOCC(COCCC(=O)NC(COCCC(=O)NCCNC(=O)CCC(=O)Nc3cccc4c(C(=O)NCC(=O)N5CC(F)(F)C[C@H]5C#N)ccnc34)(COCCC(=O)NCCNC(=O)CCC(=O)Nc3cccc4c(C(=O)NCC(=O)N5CC(F)(F)C[C@H]5C#N)ccnc34)COCCC(=O)NCCNC(=O)CCC(=O)Nc3cccc4c(C(=O)NCC(=O)N5CC(F)(F)C[C@H]5C#N)ccnc34)NC(=O)CCC(C(=O)O)N3CCN(CC(=O)[O-])CCN(CC(=O)[O-])CCN(CC(=O)[O-])CC3)cccc12.[177Lu+3]` (stereo partly shown) [^177Lu-Hexa-ESV6-DOTAGA] the “Tumor to organs ratio, Blood” value (6 h) was 7.84, the “Injected dose per gram, Blood” value (6 h post injection) was 0.36 % ID/g and the “Tumor to organs ratio, Blood” value (24 h) was 17.77. The “Injected dose per gram, Blood” value (24 h post injection) was 0.10 % ID/g, the “Tumor to organs ratio, Blood” value (96 h) was 85.06 and the “Injected dose per gram, Blood” value (96 h post injection) was 0.02 % ID/g. The “Tumor to organs ratio, Heart” value (6 h) was 8.50, the “Injected dose per gram, Heart” value (6 h post injection) was 0.33 % ID/g and the “Tumor to organs ratio, Heart” value (24 h) was 7.90. The “Injected dose per gram, Heart” value (24 h post injection) was 0.23 % ID/g, the “Tumor to organs ratio, Heart” value (96 h) was 8.99 and the “Injected dose per gram, Heart” value (96 h post injection) was 0.16 % ID/g. For the same compound, the “Tumor to organs ratio, Intestine” value (6 h) was 13.86, the “Injected dose per gram, Intestine” value (6 h post injection) was 0.24 % ID/g and the “Tumor to organs ratio, Intestine” value (24 h) was 20.76. The “Injected dose per gram, Intestine” value (24 h post injection) was 0.10 % ID/g, the “Tumor to organs ratio, Intestine” value (96 h) was 20.47 and the “Injected dose per gram, Intestine” value (96 h post injection) was 0.07 % ID/g. For the same compound, the “Tumor to organs ratio, Kidney” value (6 h) was 5.24, the “Injected dose per gram, Kidney” value (6 h post injection) was 0.53 % ID/g and the “Tumor to organs ratio, Kidney” value (24 h) was 3.37. The “Injected dose per gram, Kidney” value (24 h post injection) was 0.57 % ID/g, the “Tumor to organs ratio, Kidney” value (96 h) was 0.99 and the “Injected dose per gram, Kidney” value (96 h post injection) was 1.37 % ID/g. For the same compound, the “Tumor to organs ratio, Liver” value (6 h) was 0.04, the “Injected dose per gram, Liver” value (6 h post injection) was 62.54 % ID/g and the “Tumor to organs ratio, Liver” value (24 h) was 0.03. For the same compound, the “Injected dose per gram, Liver” value (24 h post injection) was 53.45 % ID/g, the “Tumor to organs ratio, Liver” value (96 h) was 0.03 and the “Injected dose per gram, Liver” value (96 h post injection) was 49.80 % ID/g. The “Tumor to organs ratio, Lung” value (6 h) was 0.43, the “Injected dose per gram, Lung” value (6 h post injection) was 6.91 % ID/g and the “Tumor to organs ratio, Lung” value (24 h) was 0.34. For the same compound, the “Injected dose per gram, Lung” value (24 h post injection) was 5.33 % ID/g, the “Tumor to organs ratio, Lung” value (96 h) was 1.10 and the “Injected dose per gram, Lung” value (96 h post injection) was 1.38 % ID/g. The “Tumor to organs ratio, Muscle” value (6 h) was 9.52, the “Injected dose per gram, Muscle” value (6 h post injection) was 0.66 % ID/g and the “Tumor to organs ratio, Muscle” value (24 h) was 13.70. For the same compound, the “Injected dose per gram, Muscle” value (24 h post injection) was 0.14 % ID/g, the “Tumor to organs ratio, Muscle” value (96 h) was 35.84 and the “Injected dose per gram, Muscle” value (96 h post injection) was 0.05 % ID/g. For the same compound, the “Tumor to organs ratio, Spleen” value (6 h) was 0.07, the “Injected dose per gram, Spleen” value (6 h post injection) was 41.26 % ID/g and the “Tumor to organs ratio, Spleen” value (24 h) was 0.04. The “Injected dose per gram, Spleen” value (24 h post injection) was 47.44 % ID/g, the “Tumor to organs ratio, Spleen” value (96 h) was 0.04 and the “Injected dose per gram, Spleen” value (96 h post injection) was 38.61 % ID/g. The “Tumor to organs ratio, Tail” value (6 h) was 4.76, the “Injected dose per gram, Tail” value (6 h post injection) was 0.70 % ID/g and the “Tumor to organs ratio, Tail” value (24 h) was 1.39. For the same compound, the “Injected dose per gram, Tail” value (24 h post injection) was 1.65 % ID/g, the “Tumor to organs ratio, Tail” value (96 h) was 2.03 and the “Injected dose per gram, Tail” value (96 h post injection) was 1.02 % ID/g. For the same compound, the “Injected dose per gram, Tumor” value (6 h post injection) was 2.77 % ID/g, the “Injected dose per gram, Tumor” value (24 h post injection) was 1.80 % ID/g and the “Injected dose per gram, Tumor” value (96 h post injection) was 1.36 % ID/g.

`N#C[C@@H]1CC(F)(F)CN1C(=O)CNC(=O)c1ccnc2c(NC(=O)CCC(=O)NCCNC(=O)CCOCC(COCCC(=O)NCCNC(=O)CCC(=O)Nc3cccc4c(C(=O)NCC(=O)N5CC(F)(F)C[C@H]5C#N)ccnc34)(COCCC(=O)NCCNC(=O)CCC(=O)Nc3cccc4c(C(=O)NCC(=O)N5CC(F)(F)C[C@H]5C#N)ccnc34)NC(=O)CCC(C(=O)O)N3CCN(CC(=O)O)CCN(CC(=O)O)CCN(CC(=O)O)CC3)cccc12` (stereo partly drawn) [Tri-ESV6-DOTAGA, 2,2′,2″-(10-(19-carboxy-1-((4-((2-((S)-2-cyano-4,4-difluoropyrrolidin-1-yl)-2-oxoethyl)carbamoyl)quinolin-8-yl)amino)-14,14-bis((3-((2-(4-((4-((2-((S)-2-cyano-4,4-difluoropyrrolidin-1-yl)-2-oxoethyl)carbamoyl)quinolin-8-yl)amino)-4-oxobutanamido)ethyl)amino)-3-oxopropoxy)methyl)-1,4,9,16-tetraoxo-12-oxa-5,8,15-triazanonadecan-19-yl)-1,4,7,10-tetraazacyclododecane-1,4,7-triyl)triacetic acid] was tested, and the “tumor uptake / biodistribution profile, in words” value was “remarkably high tumor uptake even after 48, 72 and 96 hours post injection”.
